Consider two molecules from ChEMBL document CHEMBL5034019, “Discovery of the Next-Generation Pan-TRK Kinase Inhibitors for the Treatment of Cancer” (J Med Chem, 2021).

Broadly, the half-life is the time needed for the level to fall by half in the phase considered. One may read the Cmax as the highest concentration seen after dosing. One may read the Vd as the apparent volume that relates the amount in the body to the concentration in plasma or blood. High values mean extensive tissue distribution, low ones confinement near the circulation. What is called clearance is the rate of elimination divided by the concentration. Higher therefore signals efficient removal. Broadly, the AUC(0-t) is the area under the concentration-time curve up to a stated or last time point. In general, efflux ratio refers to a quotient of directional permeabilities that is used to spot active efflux.

The nature of data set [1]: Half life in Sprague-Dawley rat at 3 mg/kg measured up to 24 hrs by LC-MS/MS analysis. As to conditions: in vivo. It is filed as ADME, organism-based.
A short description of data set [2]: Cmax in Sprague-Dawley rat at 10 mg/kg, po measured up to 24 hrs by LC-MS/MS analysis. The data set is classed as ADME, organism-based. Further details: route oral, dose 10 mg/kg, time <=24. As to conditions: in vivo.
A short description of data set [3]: Toxicity in […] xenografted with mouse BaF3 cells transfected with ETV6-NTRK3-G623R mutant assessed as death at 100 mg/kg, po administered once daily for 21 days and measured twice weekly. It is filed as organism-based. As to conditions: in vivo, 504 h, time 21 day.
Data set [4] in a line: Toxicity in mouse xenografted with mouse BaF3 cells transfected with LMNA-NTRK1 assessed as weight loss at 100 mg/kg, po administered once daily for 21 days and measured twice weekly. As to conditions: in vivo, 504 h.
Data set [5] can be described thus: Toxicity in mouse xenografted with mouse BaF3 cells transfected with ETV6-NTRK3 assessed as weight loss at 100 mg/kg, po administered once daily for 21 days and measured twice weekly. As to conditions: in vivo, 504 h.
A short description of data set [6]: Toxicity in mouse xenografted with mouse BaF3 cells transfected with LMNA-NTRK1 assessed as unkempt appearance at 100 mg/kg, po administered once daily for 21 days and measured twice weekly. The settings on record: in vivo, 504 h.
The nature of data set [7]: Toxicity in mouse xenografted with mouse BaF3 cells transfected with ETV6-NTRK3 assessed as unkempt appearance at 100 mg/kg, po administered once daily for 21 days and measured twice weekly. The settings on record: in vivo, 504 h.
Data set [8] is described as follows: Toxicity in mouse xenografted with mouse BaF3 cells transfected with LMNA-NTRK1-G595R mutant assessed as weight loss at 100 mg/kg, po administered once daily for 21 days and measured twice weekly. As to conditions: in vivo, 504 h.
Data set [9] concerns the target Serine/threonine-protein kinase A-Raf (Homo sapiens) (UniProt P10398). Kind of data set: Inhibition of recombinant human A-Raf (273 to end residues) assessed as residual activity at 0.5 uM using myelin as substrate incubated for 40 mins in presence of [gamma-33P]-ATP by scintillation counting method relative to control.
The target of data set [10] is Serine/threonine-protein kinase B-raf (Homo sapiens) (UniProt P15056). Kind of data set: Inhibition of recombinant […] human B-Raf (416 to end residues) assessed as residual activity at 0.5 uM using myelin basic protein substrate incubated for 40 mins in presence of [gamma-33ATP] by scintillation counting based radiometry assay relative to control.
Data set [11] deals with Epidermal growth factor receptor (Homo sapiens) (UniProt P00533). The data set is described as follows: Inhibition of recombinant human EGFR (696 to end residues) assessed as residual activity at 0.5 uM using poly(Glu, Tyr) 4:1 as substrate at 40 mins in presence of [gamma-33ATP] by scintillation counting based radiometry assay relative to control.
The subject of data set [12] is Epidermal growth factor receptor (Homo sapiens), P00533 [L858R]. The data set is described as follows: Inhibition of recombinant human EGFR L858R mutant (696 to end residues) assessed as residual activity at 0.5 uM using poly(Glu, Tyr) 4:1 as substrate at 40 mins in presence of [gamma-33ATP] by scintillation counting based radiometry assay relative to control.
The subject of data set [13] is Epidermal growth factor receptor (Homo sapiens), P00533 [L861Q]. The data set is described as follows: Inhibition of recombinant human EGFR L861Q mutant (696 to end residues) assessed as residual activity at 0.5 uM using poly(Glu, Tyr) 4:1 as substrate at 40 mins in presence of [gamma-33ATP] by scintillation counting based radiometry assay relative to control.
Data set [14] has as its target Hepatocyte growth factor receptor (Homo sapiens) (UniProt P08581). The data set is described as follows: Inhibition of recombinant human MET (974 to end residues) assessed as residual activity at 0.5 uM using KKKGQEEEYVFIE as substrate incubated for 40 mins in presence of [gamma-33ATP by scintillation counting based radiometry assay relative to control.
The target in data set [15] is Proto-oncogene tyrosine-protein kinase receptor Ret (Homo sapiens) (UniProt P07949). Kind of data set: Inhibition of recombinant human Ret (658 to end residues) assessed as residual activity at 0.5 uM using KKKSPGEYVNIEFG as substrate incubated for 40 mins in presence of [gamma33P]ATP by scintillation counting based radiometry assay relative to control.
For data set [16], the target named is Receptor-interacting serine/threonine-protein kinase 1 (Homo sapiens) (UniProt Q13546). The data set is described as follows: Inhibition of recombinant human RIPK1 (8 to 322 residues) assessed as residual activity at 0.5 uM using myelin basic protein as substrate incubated for 40 mins in presence of [gamma33P]ATP by scintillation counting based radiometry assay relative to control.

Data set [17] has as its target Macrophage-stimulating protein receptor (Homo sapiens) (UniProt Q04912). Kind of data set: Inhibition of recombinant human Ron (983 to end residues) assessed as residual activity at 0.5 uM using GGMEDIYFEFMGGKKK as substrate incubated for 40 mins in presence of [gamma33P]ATP by scintillation counting based radiometry assay relative to control.
Data set [18] deals with Proto-oncogene tyrosine-protein kinase Src (Homo sapiens), P12931 [T341M]. Kind of data set: Inhibition of recombinant full-length human Src T341M mutant assessed as residual activity at 0.5 uM using GGEEEEYFELVKKKK as substrate measured after 40 mins in presence of [gamma33P]ATP by scintillation counting method relative to control.
Data set [19] concerns the target BDNF/NT-3 growth factors receptor (Homo sapiens) (UniProt Q16620). The data set is described as follows: Inhibition of human TrkB (455 to end residues) assessed as residual activity at 0.5 uM using poly(Glu, Tyr) 4:1 as substrate measured after 40 mins in presence of [gamma33P]ATP by scintillation counting method relative to control.
Data set [20] concerns the target Tyrosine-protein kinase JAK1 (Homo sapiens) (UniProt P23458). Kind of data set: Inhibition of human JAK1 (866 to end residues) assessed as residual activity at 0.5 uM using GEEPLYWSFPAKKK as substrate after 40 mins by [gamma-33ATP] radiometric assay relative to control.
Data set [21] concerns the target Vascular endothelial growth factor receptor 2 (Homo sapiens) (UniProt P35968). Kind of data set: Inhibition of human KDR (790 to end residues) assessed as residual activity at 0.5 uM using myelin basic protein as substrate after 40 mins by [gamma-33ATP] radiometric assay relative to control.
A short description of data set [22]: C0 in male Sprague-Dawley rat at 2 mg/kg, iv measured up to 24 hrs by LC/MS/MS analysis. It is filed as ADME, organism-based. As to conditions: in vivo.
Data set [23] in a line: Volume of distribution in male Sprague-Dawley rat at 2 mg/kg, iv measured up to 24 hrs by LC-MS/MS analysis. It is filed as ADME, organism-based. The settings on record: in vivo.
Data set [24] can be described thus: Clearance in female Sprague-Dawley rat at 2 mg/kg, iv measured up to 24 hrs by LC/MS/MS analysis. It is filed as ADME, organism-based. As to conditions: in vivo.
Data set [25] in a line: AUC (0 to t) in male Sprague-Dawley rat at 2 mg/kg, iv measured up to 24 hrs by LC-MS/MS analysis. The data set is classed as ADME, organism-based. Further details: route intravenous, dose 2 mg/kg, time <=24. As to conditions: in vivo.
Data set [26] can be described thus: Cmax in female Sprague-Dawley rat at 10 mg/kg, po measured up to 24 hrs by LC-MS/MS analysis. As to conditions: in vivo. The data set is classed as ADME, organism-based. Also noted: route oral, dose 10 mg/kg, time <=24.
A further data set in a line: in vitro. As to conditions: human, Caco-2.

Chain of BDNF/NT-3 growth factors receptor (Homo sapiens) (Q16620 32-822 limits assumed): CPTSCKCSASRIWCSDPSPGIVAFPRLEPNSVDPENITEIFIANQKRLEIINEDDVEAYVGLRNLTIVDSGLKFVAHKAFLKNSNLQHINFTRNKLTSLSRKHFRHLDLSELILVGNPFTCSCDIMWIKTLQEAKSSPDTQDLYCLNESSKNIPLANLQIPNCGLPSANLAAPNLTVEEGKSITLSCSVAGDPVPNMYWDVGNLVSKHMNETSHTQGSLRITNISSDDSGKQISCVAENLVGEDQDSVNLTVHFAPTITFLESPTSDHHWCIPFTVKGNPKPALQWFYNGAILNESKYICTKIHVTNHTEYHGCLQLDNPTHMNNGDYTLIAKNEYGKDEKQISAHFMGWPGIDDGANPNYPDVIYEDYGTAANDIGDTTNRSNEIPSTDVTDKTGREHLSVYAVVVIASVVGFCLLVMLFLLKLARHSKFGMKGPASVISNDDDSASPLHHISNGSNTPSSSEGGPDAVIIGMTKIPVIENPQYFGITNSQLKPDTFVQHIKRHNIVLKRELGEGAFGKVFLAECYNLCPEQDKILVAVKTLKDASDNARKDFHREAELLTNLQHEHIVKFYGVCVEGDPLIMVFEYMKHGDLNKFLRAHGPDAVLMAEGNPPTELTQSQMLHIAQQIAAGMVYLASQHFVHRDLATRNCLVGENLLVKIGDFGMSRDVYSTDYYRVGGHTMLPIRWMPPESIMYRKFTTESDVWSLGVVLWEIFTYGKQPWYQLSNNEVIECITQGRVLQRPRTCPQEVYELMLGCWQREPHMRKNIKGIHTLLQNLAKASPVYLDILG
Chain of Tyrosine-protein kinase JAK1 (Homo sapiens) (P23458 whole entry): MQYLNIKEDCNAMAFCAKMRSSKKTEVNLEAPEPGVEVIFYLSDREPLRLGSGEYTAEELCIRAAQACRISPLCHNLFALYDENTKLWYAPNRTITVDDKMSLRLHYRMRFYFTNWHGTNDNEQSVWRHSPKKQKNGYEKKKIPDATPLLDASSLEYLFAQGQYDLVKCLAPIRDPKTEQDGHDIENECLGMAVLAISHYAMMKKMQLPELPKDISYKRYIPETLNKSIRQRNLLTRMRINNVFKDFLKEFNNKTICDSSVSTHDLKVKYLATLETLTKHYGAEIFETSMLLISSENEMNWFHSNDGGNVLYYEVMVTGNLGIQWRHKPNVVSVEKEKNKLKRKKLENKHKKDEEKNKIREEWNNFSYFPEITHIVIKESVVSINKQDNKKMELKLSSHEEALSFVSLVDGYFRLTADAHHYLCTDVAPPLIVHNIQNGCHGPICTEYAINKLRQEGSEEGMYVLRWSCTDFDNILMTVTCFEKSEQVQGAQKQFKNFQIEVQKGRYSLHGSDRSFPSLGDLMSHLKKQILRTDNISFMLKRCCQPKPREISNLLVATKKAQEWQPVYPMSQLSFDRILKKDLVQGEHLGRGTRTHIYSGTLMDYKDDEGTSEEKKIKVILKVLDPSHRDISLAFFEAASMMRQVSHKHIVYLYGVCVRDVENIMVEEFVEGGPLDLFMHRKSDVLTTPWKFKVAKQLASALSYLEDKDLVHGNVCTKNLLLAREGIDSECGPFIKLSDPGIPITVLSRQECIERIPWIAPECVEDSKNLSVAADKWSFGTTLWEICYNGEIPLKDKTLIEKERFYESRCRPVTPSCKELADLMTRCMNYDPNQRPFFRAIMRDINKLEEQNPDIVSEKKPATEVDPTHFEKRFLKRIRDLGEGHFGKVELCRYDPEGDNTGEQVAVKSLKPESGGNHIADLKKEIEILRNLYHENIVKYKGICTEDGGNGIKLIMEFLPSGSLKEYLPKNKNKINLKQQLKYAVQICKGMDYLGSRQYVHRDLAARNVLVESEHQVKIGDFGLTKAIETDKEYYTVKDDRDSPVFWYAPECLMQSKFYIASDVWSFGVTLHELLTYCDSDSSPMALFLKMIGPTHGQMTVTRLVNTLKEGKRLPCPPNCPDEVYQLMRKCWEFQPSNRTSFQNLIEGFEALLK
Chain of Vascular endothelial growth factor receptor 2 (Homo sapiens) (P35968 whole entry): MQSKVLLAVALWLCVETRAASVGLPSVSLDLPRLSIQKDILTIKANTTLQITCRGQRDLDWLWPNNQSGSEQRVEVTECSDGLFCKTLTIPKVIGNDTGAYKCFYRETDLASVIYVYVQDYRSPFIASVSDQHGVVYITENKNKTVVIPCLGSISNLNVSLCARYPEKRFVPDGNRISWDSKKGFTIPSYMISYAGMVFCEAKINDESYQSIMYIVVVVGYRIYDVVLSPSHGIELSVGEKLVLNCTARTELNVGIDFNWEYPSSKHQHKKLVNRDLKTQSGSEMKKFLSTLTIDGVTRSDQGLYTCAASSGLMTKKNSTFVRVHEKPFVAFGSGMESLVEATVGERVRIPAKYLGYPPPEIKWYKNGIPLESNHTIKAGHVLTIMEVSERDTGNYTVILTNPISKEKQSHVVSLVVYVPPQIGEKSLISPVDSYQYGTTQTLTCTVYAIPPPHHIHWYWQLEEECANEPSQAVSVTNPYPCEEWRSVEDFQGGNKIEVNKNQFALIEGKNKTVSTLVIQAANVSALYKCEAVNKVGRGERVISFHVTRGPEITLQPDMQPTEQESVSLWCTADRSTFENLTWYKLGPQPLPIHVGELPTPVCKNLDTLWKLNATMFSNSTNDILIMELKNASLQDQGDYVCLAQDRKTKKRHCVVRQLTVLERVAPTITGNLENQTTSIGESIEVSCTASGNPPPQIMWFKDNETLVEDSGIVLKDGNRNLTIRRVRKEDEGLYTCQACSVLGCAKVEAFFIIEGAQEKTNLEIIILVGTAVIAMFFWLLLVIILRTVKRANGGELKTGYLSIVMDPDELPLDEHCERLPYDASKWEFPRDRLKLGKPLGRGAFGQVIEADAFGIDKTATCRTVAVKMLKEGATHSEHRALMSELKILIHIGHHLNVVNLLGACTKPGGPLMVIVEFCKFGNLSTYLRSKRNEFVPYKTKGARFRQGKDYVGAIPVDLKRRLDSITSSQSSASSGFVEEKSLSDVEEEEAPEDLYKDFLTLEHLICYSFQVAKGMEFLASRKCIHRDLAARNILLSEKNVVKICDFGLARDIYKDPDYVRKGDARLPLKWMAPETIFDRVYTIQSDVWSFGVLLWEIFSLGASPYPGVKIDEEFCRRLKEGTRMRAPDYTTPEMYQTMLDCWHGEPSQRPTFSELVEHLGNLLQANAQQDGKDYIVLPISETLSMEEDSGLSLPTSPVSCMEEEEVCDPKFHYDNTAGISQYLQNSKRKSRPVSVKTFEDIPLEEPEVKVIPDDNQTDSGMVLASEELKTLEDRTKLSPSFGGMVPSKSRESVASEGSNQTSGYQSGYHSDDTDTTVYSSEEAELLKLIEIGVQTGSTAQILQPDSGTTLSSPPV
Chain of Macrophage-stimulating protein receptor (Homo sapiens) (Q04912 25-304 limits assumed): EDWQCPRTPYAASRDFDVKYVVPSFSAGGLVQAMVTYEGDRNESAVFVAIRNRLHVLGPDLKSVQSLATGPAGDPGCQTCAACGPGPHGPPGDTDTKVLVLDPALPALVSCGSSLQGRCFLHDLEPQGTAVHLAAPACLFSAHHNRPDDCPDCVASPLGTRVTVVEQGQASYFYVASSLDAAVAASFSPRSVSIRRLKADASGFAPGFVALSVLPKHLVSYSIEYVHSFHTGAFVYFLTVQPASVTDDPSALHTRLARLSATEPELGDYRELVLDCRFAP
Chain of Macrophage-stimulating protein receptor (Homo sapiens) (Q04912 310-1400 limits assumed): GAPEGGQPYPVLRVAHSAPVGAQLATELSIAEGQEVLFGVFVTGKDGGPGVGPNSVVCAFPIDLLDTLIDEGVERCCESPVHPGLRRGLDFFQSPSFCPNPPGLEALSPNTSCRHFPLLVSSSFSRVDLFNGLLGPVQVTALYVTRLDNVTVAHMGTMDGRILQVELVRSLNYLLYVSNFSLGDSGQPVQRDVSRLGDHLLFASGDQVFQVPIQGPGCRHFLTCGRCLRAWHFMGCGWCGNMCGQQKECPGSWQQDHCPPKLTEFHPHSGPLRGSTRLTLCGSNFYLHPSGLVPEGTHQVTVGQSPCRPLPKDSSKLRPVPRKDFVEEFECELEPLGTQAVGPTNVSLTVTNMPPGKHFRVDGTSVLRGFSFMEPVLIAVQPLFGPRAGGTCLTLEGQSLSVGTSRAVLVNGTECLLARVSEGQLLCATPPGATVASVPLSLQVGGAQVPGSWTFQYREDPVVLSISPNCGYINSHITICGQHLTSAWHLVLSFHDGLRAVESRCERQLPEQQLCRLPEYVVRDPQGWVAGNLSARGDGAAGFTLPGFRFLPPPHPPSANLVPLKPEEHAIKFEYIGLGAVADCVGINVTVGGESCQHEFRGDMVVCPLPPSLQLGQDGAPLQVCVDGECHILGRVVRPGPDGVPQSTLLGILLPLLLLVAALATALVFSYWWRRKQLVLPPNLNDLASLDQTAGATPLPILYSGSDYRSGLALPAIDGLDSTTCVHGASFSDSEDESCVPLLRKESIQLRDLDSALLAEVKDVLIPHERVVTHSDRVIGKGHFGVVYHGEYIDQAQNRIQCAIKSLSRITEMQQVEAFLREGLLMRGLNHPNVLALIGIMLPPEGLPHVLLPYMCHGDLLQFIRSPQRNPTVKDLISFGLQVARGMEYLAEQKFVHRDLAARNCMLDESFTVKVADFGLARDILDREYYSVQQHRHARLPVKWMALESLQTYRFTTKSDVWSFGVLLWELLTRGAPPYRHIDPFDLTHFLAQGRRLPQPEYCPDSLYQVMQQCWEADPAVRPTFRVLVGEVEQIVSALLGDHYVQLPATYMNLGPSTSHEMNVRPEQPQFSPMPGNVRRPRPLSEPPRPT
Description for in vitro: Efflux ratio of apparent permeability from basolateral to apical over apical to basolateral side in human Caco2 cells incubated for 2 hrs by LC-MS/MS analysis

As for `C[C@@H]1CCc2ncc(F)cc2[C@H]2CCCN2c2ccn3ncc(c3n2)C(=O)N1` [SELITRECTINIB], the half-life in data set [1] was 1.2 h. In data set [2], this molecule had a Cmax of 12.7 µM. Moreover, the Activity entry in [3], in [4], in data set [5], in [6], in data set [7] and in data set [8] was “Toxic” each time.
With `O=C1NC2(CC2)COc2ncc(F)cc2[C@H]2COCCN2c2ccn3ncc1c3n2`, the Activity in data set [9] came out at 103%; in [10], 111%; in [11] it was 108%; in data set [12] it was 91%; in data set [13], 95%; in [14], 98%. Also, the Activity in data set [15] was 64%; in [16] it was 102%; in data set [17], 112%; in data set [18] it was 55%; in data set [19] it was -1%; in data set [20] it was 91%. Further, the Activity in data set [21] came to 108%. The same molecule gave a C0 at 24 h in data set [22] of 4.12 µM. Further, the Vd in data set [23] was 1.39 L/kg. The clearance in data set [24] was determined as 8.19 mL/min/kg. The AUC(0-t) at 24 h in data set [25] is 4.19 µM·h. Besides, the concentration in data set [26] peaked (Cmax) at 6.63 µM. Moreover, in the data set “in vitro”, the efflux ratio at 2 h stood at 2.8.
